Measurements from patent publication US7230033B2, “Pest control compositions and methods for their use” (United States of America as represented by the Secretary of …, priority 2000, dated 2007).

Tests used:
[1] = tested on: ticks, fleas and mosquitoes; assay: Example 2 bioassay, qualitative comparison on ticks, fleas and mosquitoes (Examples 4, 6); type: in vivo
Method: Samples of the compounds listed below were obtained as described in Example 1, and screened for biocidal activities against nymphal Ixodes scapularis. In this example, 2% acetone solutions (wt/vol) of the compounds were applied to inner surfaces of 2-dram friction cap vials. Vials and caps were treated then allowed to dry for a minimum of 4 hours before placing 10 nymphs in each container. These same vials were used to challenge additional nymphs and adult I. scapularis ticks and adult Xenopsylla cheopis fleas through five weeks to observe any possible residual activity.
Nootkatol was tested using the bioassay presented in Example 2.
Two nootkatone samples were compared to nootkatone isolated from Alaska yellow cedar using the method presented in Example 1. The first sample was a natural extract of nootkatone taken from grapefruit oil purchased commercially. The second sample was a synthetically produced nootkatone purchased commercially.
Both samples were compared to the nootkatone originating from Alaska yellow cedar in terms of their biocidal activities. Using a bioassay method similar to that presented in Example 2, no qualitative differences were discernible among the nootkatone samples in terms of their biocidal effect on ticks, fleas and mosquitoes.

I. scapularis nymphs = assay: Tick bioassay, treated 2-dram vials, probit analysis; type: in vivo, Ixodes scapularis; conditions: 24 h exposure
Excerpt: A control treated with acetone only was run with each series.
For each time point, if ticks and fleas were incapable of movement, maintaining normal posture, leg coordination, ability to right themselves, or any signs of life, they were considered moribund or dead.

X. cheopis adults = assay: Flea bioassay, treated 2-dram vials, probit analysis; type: in vivo, Xenopsylla cheopis; conditions: 24 h exposure
Method: Med. […] A control treated with acetone only was run with each series. Tick and flea susceptibility was evaluated using a modification of the disposable pipette method of Barnard et al. (J. Econ. Entomol., 74:466-69, 1981) and Maupin and […]. Med. […] The inner surface of 2-dram friction cap vials were treated with the compound/acetone solution, or acetone only as a control, and left to air-dry overnight (see also, […] et al., J. Med. […] Three to 4 holes were made in the plastic cap to allow for air exchange. Nymphal ticks and adult fleas were then placed directly into the vials using forceps. […] For each time point, if ticks and fleas were incapable of movement, maintaining normal posture, leg coordination, ability to right themselves, or any signs of life, they were considered moribund or dead.

Ae. aegypti adults = assay: Adult mosquito bottle bioassay; type: in vivo, Aedes aegypti; conditions: 24 h exposure
Method: Adult mosquitoes were tested using the bottle bioassay method of Brogden and McAllister (J. Am. Mosq. Control Assoc., 14:159–64, 1998) with minor modifications. Natural product extracts were two-fold serially diluted for a total of 8 concentrations ranging from 0.002% to 0.25% in 1.5 ml of acetone. Individual dilutions were added to 250 ml Wheaton glass bottles and capped. Bottles were manipulated to evenly coat all inner surfaces. The caps were removed and bottles were allowed to air-dry overnight. Once bottles were completely dry, 10–50 (in some tests 25–50) adult mosquitoes were aspirated into the bottles. Mosquitoes were held in the bottles for 24 h at 23° C. and 85% RH. Morbidity and mortality were recorded at 15, 30, 45, and 60 min and 24 hour intervals. One bottle for each replicate was treated with acetone only and served as a control. The dose-mortality data was evaluated with probit analysis, using the LdP Line software, to determine LC50 and LC90 values.
Carvacrol was combined with compound 7, 9, or 10 at a 1:1 ratio (7.5 μl of carvacrol:7.5 μl of compound 7, 9, or 10 was added to 2,985 μl of acetone for a 0.5% solution, from which serial dilutions were made), and tested as previously described against nymphal ticks and adult and larval mosquitoes.

[2] = tested on: Ixodes scapularis nymphal ticks; assay: Tick repellency bioassay; type: in vivo; conditions: combinations 1:1 by weight
Excerpt: One-hundred (100) μl of test compound was pipetted onto a cotton-tipped applicator mounted to the bottom center of a 1 dram glass shell vial using non-toxic modeling clay. A total of 8 concentrations were screened with doses ranging from 0.04–5.0%. Applicators treated with acetone only served as controls. A line was drawn around the perimeter of the vial immediate to the base of the treated cotton portion of the applicator. The area above the line was designated the “repellent zone”. The vial was allowed to air-dry 1 h before a single tick was introduced. Vials were covered with a single piece of mesh and fitted with a hollowed-out plastic cap to cover the opening of the vial; this prevented the tick from escaping but allowed for air exchange. Vials were breathed upon by investigators at 1 min intervals and a hand was placed over the test vials to provide stimuli for ticks to pass into the repellent zone. […] If the tick crossed over and remained in the “repellent zone” for ≧5 sec, the tick was deemed non-repelled by the test compound. Each test was replicated 10 times using a new tick for each test. Repellent activity was determined at 1, 2, 3, and 4 h after treatment. Probit analysis was used to determine repellent efficacy (RD50 and RD95).

[3] = NE = not effective at concentrations tested

With `C=C(C)[C@@H]1CCC2=C[C@@H](O)C[C@@H](C)[C@]2(C)C1` [Compound 12, Nootkatol] the “biocidal activity compared with nootkatene” value [1] was “essentially equivalent to the activity of nootkatene”, the LC50 (I. scapularis nymphs; [3]) was 0.023 percent concentration, wt:vol and the LC90 (I. scapularis nymphs; [3]) was 0.059 percent concentration, wt:vol. The Slope (I. scapularis nymphs; probit) was 3.069, the LC50 (X. cheopis adults; [3]) was 0.024 percent concentration, wt:vol and the Slope (X. cheopis adults; probit) was 2.101. For the same molecule, the LC50 (Ae. aegypti adults; [3]) was 0.004 percent concentration, wt:vol, the LC90 (Ae. aegypti adults; [3]) was 0.01 percent concentration, wt:vol and the Slope (Ae. aegypti adults; probit) was 3.201. The RD50 ([2]; 1 hr) was 0.047 % (w/v) and the RD50 ([2]; 4 hr) was 0.320 % (w/v).
